Test results as given in patent US9598387B2 (Southern Research Institute, priority 2012, dated 2017).

Tests used:
D2LR = D2LR (Homo sapiens (Human), UniProt P14416); experiment: β-Arrestin Recruitment Assay, CHO-K1 DRD2L; assay type: cell-based; details: antagonist vs EC80 6 nM Pergolide, CHO-K1 DRD2L cells; read-out: D2 IC50
Procedure: Antagonist potency of the compounds against agonist induced recruitment of β-arrestin by D3R and D2LR was measured using DiscoverRx PathHunter eXpress kits. […] After incubation at 37° C. for 90 min, the DiscoveRx detection reagent was added, the plates were incubated at room temperature for 60 min and the luminescence was measured on a Synergy 4 plate reader (BioTek). The data were plotted and the agonist EC80 values were calculated using GraphPad Prism software. For antagonist activity, the cells were plated as described above and treated with multiple concentrations (starting from 500 nM, half log dilution, 10 dose points) of the test compounds in Plating Reagent with 0.1% DMSO.

human D2 receptors = human D2 receptors (Homo sapiens (Human), UniProt P14416); experiment: D2 Mitogenesis Functional Assay (3H-thymidine uptake, CHOp-D2 cells); assay type: cell-based; details: inhibition of quinpirole (30 nM final) stimulation of mitogenesis; read-out: D2 Antagonist IC50
human D2 receptors, sequence (P14416 whole entry): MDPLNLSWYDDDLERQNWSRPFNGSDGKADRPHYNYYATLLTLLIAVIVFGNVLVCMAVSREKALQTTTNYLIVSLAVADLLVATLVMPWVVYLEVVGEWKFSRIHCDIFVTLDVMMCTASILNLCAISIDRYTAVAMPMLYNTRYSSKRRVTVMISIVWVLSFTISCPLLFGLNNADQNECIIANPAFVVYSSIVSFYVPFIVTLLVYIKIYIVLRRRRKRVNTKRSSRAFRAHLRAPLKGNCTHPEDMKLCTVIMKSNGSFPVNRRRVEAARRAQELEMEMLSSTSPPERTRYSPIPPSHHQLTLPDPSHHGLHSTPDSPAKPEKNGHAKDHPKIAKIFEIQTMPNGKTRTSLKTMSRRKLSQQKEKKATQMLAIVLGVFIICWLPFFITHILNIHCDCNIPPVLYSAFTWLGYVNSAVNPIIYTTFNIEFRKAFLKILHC

Long Evans rats = experiment: Cocaine self-administration under PR schedule of reinforcement; assay type: in vivo, rat; details: 3.75, 7.5 or 15 mg/kg intraperitoneally 10 minutes prior to session; compared to vehicle, ps<0.05; cocaine 0.375, 0.75, […]
Procedure: These studies were performed using Long Evans rats using standard protocols (Quinlan M. G. et al. Psychopharmacol. 2004, 175, 53-59; Ranaldi, R. et al. Behav. Pharmacol. 2011, 22, 347-353). Cocaine self-administration sessions were conducted in sixteen operant chambers; eight measuring 30×22×27 cm (l×w×h) and the other eight measuring 26×26×30 cm (l×w×h). Each chamber was situated inside a sound-attenuating box and was equipped with two retractable levers, a white light above each lever, and a tether. Polyethylene tubing, covered by the tether, connected the animal, through a fluid swivel, to a syringe in a syringe pump (Razel, 3.33 rpm). Cocaine was dissolved in 0.9% saline to achieve doses of 0.375, 0.75 and 1.5 mg/kg/injection. […] Each animal was tested with one dose of the D3 antagonist, randomly determined, at as many of the three cocaine doses as possible. After a particular test the animal's cocaine dose was changed to another one (randomly determined) and its baseline BP on the new dose was established. BP during the test session was expressed as the percentage of the average BP obtained during the last three baseline sessions. Percentage of baseline BP and final ratio (i.e. the number of lever presses required for the BP infusion) were analyzed using separate two-way analyses of variance (ANOVAs) with dose of 113 and dose of cocaine as between-groups factors. […]

D2LR, sequence (P14416 whole entry): as above

IC50 (D2LR): 261 ± 54 nM | IC50 (human D2 receptors): 2300 ± 1100 nM
SMILES: CC(C)(C)c1nc(N2CCN(CCCCNC(=O)c3cn4ccccc4n3)CC2)cc(C(F)(F)F)n1 [Compound 113, N-(4-(4-(2-(tert-Butyl)-6-(trifluoromethyl)pyrimidin-4-yl)piperazin-1-yl)butyl)imidazo[1,2-a]pyridine-2-carboxamide]
percentage of baseline BPs for cocaine under PR schedule (Long Evans rats): significant reductions in the percentage of baseline BPs
